Experimental data published in patent publication US20060029967A1, “Assay for nitrous oxide neurologic syndrome” (priority 2002, published 2006).

Legend:
methionine synthase [1] = biological target: T1, methionine synthase (Homo sapiens, UniProt Q99707); details: cited from earlier work
methionine synthase [2] = biological target: methionine synthase (Mus musculus, UniProt A6H5Y3); details: mice exposed to nitrous oxide; cited from earlier work
methionine synthase [3] = details: pigs exposed to nitrous oxide; cited from earlier work
methionine synthase [4] = biological target: methionine synthase (Rattus norvegicus, UniProt Q9Z2Q4); details: rats exposed to nitrous oxide; cited from earlier work
methionine synthase [5] = biological target: T1, methionine synthase; details: recovery in cultured cells; de novo synthesis of the enzyme required to restore activity; cited from earlier work
methionine synthase [6] = biological target: T1, methionine synthase; experiment: Case report: infant with MTHFR deficiency anesthetized with nitrous oxide; type: in vivo; set-up: from tissue; host or cells: patient in vivo; no tissue assayed for methionine synthase; details: infant with inherited MTHFR deficiency; two anesthetics with 60% nitrous oxide and 0.75% halothane (45 and 270 minutes)
Source text: A child discovered to have 5,10-methylenetetrahydrofolate reductase (MTHFR, […]) deficiency (OMIM #236250) died after two anesthetics using nitrous oxide (Beckman, D. R., et al., Birth Defects Orig. Artic. Ser. 23:47-64, 1987). MTHFR catalyzes the synthesis of 5-methyltetrahydrofolate. Sequence analysis of RNA transcripts and genomic DNA from the patient and family members, together with direct assays of fibroblast MTHFR activity, reveal that the enzyme deficiency was caused by a novel MTHFR mutation (1755→A) which changes conserved methionine 581 to an isoleucine, co-inherited with two common MTHFR polymorphisms (677C→T, 1298A→C) each associated with depressed enzyme function. (Frosst, P., et al., Nat. Genet. 10:111-3, 1995; van der Put, N. M., et al., Am. J. Hum. Genet. 62:1044-51, 1998).
The patient was normal […] when a mass was noted on the left lower extremity. Although not recognized prior to the patient's surgery, both the parent and uncle have serum total homocysteine levels >30.0 μM (normal 5.4-13.9 μM). On life-long, high dose vitamin B supplements, the proband's sibling has a homocysteine level of 4.3 μM. Neither the […] nor the sibling has received nitrous oxide. […]

T1 sequence (Q99707 whole entry): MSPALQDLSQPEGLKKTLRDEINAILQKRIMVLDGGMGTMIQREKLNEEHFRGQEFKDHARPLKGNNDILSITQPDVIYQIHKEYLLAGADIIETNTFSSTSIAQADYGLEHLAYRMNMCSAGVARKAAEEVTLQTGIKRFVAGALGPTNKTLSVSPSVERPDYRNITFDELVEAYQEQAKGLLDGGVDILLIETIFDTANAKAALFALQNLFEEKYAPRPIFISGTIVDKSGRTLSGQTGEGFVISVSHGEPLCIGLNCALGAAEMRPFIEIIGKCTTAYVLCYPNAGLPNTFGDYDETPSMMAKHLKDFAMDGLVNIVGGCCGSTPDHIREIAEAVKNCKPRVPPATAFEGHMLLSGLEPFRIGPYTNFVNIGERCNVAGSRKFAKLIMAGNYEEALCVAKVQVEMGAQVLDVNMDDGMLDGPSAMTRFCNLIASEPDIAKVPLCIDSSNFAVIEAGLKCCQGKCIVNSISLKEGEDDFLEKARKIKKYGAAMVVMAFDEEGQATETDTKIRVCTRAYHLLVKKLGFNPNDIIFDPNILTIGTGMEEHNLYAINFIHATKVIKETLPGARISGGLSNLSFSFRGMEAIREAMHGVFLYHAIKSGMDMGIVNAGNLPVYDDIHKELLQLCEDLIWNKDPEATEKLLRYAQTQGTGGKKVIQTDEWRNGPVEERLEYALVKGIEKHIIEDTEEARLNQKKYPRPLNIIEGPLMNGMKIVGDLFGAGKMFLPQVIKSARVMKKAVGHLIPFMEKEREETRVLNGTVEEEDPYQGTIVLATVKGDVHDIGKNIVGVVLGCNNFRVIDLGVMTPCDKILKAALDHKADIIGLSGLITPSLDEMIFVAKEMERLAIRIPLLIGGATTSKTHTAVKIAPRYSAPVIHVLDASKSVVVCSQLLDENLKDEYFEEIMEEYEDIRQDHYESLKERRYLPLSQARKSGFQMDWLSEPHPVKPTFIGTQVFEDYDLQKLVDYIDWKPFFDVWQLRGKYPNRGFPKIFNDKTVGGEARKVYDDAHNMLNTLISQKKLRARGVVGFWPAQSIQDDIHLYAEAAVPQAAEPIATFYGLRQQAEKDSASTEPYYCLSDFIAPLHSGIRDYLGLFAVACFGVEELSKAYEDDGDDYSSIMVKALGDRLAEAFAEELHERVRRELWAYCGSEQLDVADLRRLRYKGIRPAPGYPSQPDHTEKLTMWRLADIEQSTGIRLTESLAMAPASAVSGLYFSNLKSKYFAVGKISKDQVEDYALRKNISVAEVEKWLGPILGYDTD
Chain of methionine synthase (Rattus norvegicus, UniProt Q9Z2Q4) (Q9Z2Q4 whole entry): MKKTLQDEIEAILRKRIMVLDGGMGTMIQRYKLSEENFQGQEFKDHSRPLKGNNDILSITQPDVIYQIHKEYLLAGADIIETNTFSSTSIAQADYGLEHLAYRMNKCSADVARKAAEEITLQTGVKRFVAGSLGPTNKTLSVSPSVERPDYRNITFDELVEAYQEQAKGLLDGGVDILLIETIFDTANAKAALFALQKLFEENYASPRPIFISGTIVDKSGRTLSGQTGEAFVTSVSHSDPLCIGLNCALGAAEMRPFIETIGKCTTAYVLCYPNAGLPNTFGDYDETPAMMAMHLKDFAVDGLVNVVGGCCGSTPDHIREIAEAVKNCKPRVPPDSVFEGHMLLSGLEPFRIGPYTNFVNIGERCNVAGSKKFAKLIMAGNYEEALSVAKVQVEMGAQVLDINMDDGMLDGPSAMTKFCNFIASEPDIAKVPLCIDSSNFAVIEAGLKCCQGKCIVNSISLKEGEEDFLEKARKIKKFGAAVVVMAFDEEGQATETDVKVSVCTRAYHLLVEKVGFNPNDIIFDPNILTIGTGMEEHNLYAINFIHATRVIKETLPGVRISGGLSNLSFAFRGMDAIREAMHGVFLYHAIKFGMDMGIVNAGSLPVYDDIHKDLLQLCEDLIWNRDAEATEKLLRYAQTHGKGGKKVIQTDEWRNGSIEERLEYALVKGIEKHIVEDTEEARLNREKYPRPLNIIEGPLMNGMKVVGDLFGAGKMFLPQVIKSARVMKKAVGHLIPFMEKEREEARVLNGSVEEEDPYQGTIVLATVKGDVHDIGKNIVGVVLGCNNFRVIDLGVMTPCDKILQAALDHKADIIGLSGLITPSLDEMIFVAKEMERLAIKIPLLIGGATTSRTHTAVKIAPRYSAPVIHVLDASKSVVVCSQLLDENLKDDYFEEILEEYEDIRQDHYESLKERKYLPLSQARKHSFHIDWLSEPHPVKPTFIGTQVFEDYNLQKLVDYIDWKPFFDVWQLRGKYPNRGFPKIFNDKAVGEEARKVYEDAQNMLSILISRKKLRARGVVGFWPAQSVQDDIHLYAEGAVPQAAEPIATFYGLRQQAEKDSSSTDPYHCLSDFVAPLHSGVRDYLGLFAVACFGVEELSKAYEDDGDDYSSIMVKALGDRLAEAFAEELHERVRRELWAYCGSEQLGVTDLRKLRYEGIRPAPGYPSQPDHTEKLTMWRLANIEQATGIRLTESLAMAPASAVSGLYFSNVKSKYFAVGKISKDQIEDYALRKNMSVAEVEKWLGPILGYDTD
Chain of methionine synthase (Mus musculus, UniProt A6H5Y3) (A6H5Y3 whole entry): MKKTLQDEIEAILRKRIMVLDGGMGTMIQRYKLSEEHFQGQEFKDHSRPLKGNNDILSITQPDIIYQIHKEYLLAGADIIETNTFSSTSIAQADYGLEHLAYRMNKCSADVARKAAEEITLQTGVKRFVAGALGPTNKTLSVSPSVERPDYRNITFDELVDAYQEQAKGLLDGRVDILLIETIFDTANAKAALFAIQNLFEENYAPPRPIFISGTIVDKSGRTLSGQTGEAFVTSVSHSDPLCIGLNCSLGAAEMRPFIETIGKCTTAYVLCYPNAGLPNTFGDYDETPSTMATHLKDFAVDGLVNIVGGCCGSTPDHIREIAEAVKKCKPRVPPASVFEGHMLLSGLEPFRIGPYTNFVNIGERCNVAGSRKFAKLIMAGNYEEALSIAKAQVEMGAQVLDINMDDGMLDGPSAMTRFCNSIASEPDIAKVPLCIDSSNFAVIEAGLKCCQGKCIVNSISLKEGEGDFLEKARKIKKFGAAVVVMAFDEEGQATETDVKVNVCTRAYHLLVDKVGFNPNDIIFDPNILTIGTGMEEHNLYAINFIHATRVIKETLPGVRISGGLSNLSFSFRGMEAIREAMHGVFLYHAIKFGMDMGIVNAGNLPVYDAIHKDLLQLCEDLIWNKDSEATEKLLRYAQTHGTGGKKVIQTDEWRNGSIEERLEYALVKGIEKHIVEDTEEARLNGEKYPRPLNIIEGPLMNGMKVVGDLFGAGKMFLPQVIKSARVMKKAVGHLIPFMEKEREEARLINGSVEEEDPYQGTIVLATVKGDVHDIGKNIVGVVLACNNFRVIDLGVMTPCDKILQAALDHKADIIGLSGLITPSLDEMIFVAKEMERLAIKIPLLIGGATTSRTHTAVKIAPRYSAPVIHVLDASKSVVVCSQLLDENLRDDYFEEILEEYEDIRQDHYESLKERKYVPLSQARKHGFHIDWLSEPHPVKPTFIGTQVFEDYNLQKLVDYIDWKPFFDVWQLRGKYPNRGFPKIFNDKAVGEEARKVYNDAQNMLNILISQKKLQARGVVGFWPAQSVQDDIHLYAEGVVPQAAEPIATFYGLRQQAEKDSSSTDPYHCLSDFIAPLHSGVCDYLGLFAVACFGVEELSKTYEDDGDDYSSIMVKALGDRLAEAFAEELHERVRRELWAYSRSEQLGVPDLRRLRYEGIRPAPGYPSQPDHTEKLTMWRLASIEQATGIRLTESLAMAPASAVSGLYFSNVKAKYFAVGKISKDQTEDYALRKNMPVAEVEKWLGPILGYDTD

Structure (SMILES): [N-]=[N+]=O [nitrous oxide]
- Residual methionine synthase activity (methionine synthase [1]; following greater than 200 minutes of nitrous oxide administration): approaches zero
- mean half-time of inactivation of methionine synthase (methionine synthase [1]; nitrous oxide administration): 46 min
- delayed recovery of enzyme activity (methionine synthase [2]): ≥ 4 days
- delayed recovery of enzyme activity (methionine synthase [3]): ≥ 4 days
- delayed recovery of enzyme activity (methionine synthase [4]): ≥ 4 days
- nature of nitrous oxide-mediated inhibition (methionine synthase [5]): irreversible
- clinical outcome after nitrous oxide anesthesia (methionine synthase [6]): caused the patient's death
